Values quoted from earlier work as cited in patent US12594250B2, “Prevention of accumulated tolerance to stimulant medication for the treatment of ADHD” (priority 2021, dated 2026).
Where two headings read alike, the source gives them in different places.

How the values were obtained:
[1] = system: children with ADHD; conditions: for duration of effect / action / efficacy: after one administration
[2] = oral administration; for time to maximum serum concentration (C-max): immediate-release bolus
[3] = target: T1, DA Transporter (DAT) (Homo sapiens, UniProt Q01959); conditions: adults with ADHD, a year of consistent medication use
T1 construct: dopamine transporter density was increased in specific dopamine regions of the brain; host or cells: living brain (caudate nucleus, nucleus accumbens) of adults with ADHD; endogenous protein

[4] = system: children with ADHD
[5] = system: ADHD; conditions: high dose of IR formulation

T1 sequence (Q01959 whole entry): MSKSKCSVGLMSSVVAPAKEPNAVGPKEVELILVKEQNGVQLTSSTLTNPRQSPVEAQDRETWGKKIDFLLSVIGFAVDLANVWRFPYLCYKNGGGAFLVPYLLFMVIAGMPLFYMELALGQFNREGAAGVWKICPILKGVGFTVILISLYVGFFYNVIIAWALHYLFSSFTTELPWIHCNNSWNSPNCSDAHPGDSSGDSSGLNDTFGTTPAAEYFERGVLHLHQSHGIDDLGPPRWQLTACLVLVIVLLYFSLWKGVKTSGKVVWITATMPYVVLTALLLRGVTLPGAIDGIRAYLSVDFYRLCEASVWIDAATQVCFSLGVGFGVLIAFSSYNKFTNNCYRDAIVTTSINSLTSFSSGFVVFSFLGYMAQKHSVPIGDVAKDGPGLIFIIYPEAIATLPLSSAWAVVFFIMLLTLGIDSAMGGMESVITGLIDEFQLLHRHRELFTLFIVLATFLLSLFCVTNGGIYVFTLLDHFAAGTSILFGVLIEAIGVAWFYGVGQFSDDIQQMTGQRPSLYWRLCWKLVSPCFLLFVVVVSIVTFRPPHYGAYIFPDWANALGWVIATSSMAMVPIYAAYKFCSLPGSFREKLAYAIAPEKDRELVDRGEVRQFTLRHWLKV

For `NC1=NC(=O)C(c2ccccc2)O1` (centres unmarked) [Cylert, pemoline], which “duration of effect / action / efficacy” value [1] is on record?
The value was 6 h.

For `CC(N)Cc1ccccc1` (centres unmarked) [amphetamine], which “time to maximum serum concentration (C-max)” value [2] is on record?
Its value is “about 2 hours”.

What about the “duration of constant effect” value ([1]; twice-a-day (BID) dosing of immediate-release) of the same compound?
The value was 10 to 12 h.

For `COC(=O)C(c1ccccc1)C1CCCCN1` (centres unmarked) [methylphenidate], which “time to maximum serum concentration (C-max)” value [2] is on record?
The value was “about 1 hours”.

And the “half-life (T-½)” value ([2]; serum concentration)?
Its value is 2 to 3 h.

And the “duration of effect / action / efficacy” value ([1]; listed as Ritalin)?
The value was 3 h.

What about the “onset of clinical effect (reduction in symptoms)” value ([1]; after oral administration) of the same compound?
Its value is “within an hour”.

And the DAT density [3]?
The DAT density was “increases DAT density”.

And the “effect (PD response) across the day” value ([4]; ascending PK profile)?
Its value is “increasing effect”.

And the “effect (PD response) across the day” value ([4]; flat PK profile)?
The value was “decreasing effect”.

With `NC(=O)C[S+]([O-])C(c1ccccc1)c1ccccc1` (centres unmarked) [modafinil] as the compound, how does the serious side effects [5] read?
Its serious side effects is “a few cases were suspected of serious dermatologic side effects”.
